Measured values as given in PubChem BioAssay AID248 (DTP/NCI, 2004).
Values joined by “and” are separate entries in the source; they are usually repeats but may differ in a detail not shown here. Identical values can stand only once. Toxic doses and inconclusive results are not listed. Rule as the data show it: active = T/C of 150% or more; inactive = T/C below 125%.

System: L1210 leukemia ip in BDF1 mice, survival T/C
Assay: NCI In Vivo Anticancer Drug Screen. Data for tumor model L1210 Leukemia (intraperitoneal) in B6D2F1 (BDF1) mice
Details: endpoint: mean survival time, higher = longer survival
How it was run: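 Transplantable tumor model; survival measured in treated vs vehicle control mice. Value = treated/control.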

[1] = dose: 100.0 mg/kg/injection, schedule: Q01DX001 (ip), vehicle: other
[2] = dose: 200.0 mg/kg/injection, schedule: Q01DX001 (ip), vehicle: other
[3] = dose: 400.0 mg/kg/injection, schedule: Q01DX001 (ip), vehicle: other
[4] = dose: 100.0 mg/kg/injection, schedule: Q01DX009 (ip), vehicle: saline with Tween-80
[5] = dose: 100.0 mg/kg/injection, schedule: Q04DX003 (ip), vehicle: saline with Tween-80
[6] = dose: 200.0 mg/kg/injection, schedule: Q01DX009 (ip), vehicle: saline with Tween-80
[7] = dose: 200.0 mg/kg/injection, schedule: Q04DX003 (ip), vehicle: saline with Tween-80
[8] = dose: 400.0 mg/kg/injection, schedule: Q01DX009 (ip), vehicle: saline with Tween-80
[9] = dose: 400.0 mg/kg/injection, schedule: Q04DX003 (ip), vehicle: saline with Tween-80
[10] = dose: 50.0 mg/kg/injection, schedule: Q01DX009 (ip), vehicle: saline
[11] = dose: 100.0 mg/kg/injection, schedule: Q01DX001 (ip), vehicle: Klucel (hydroxypropylcellulose) (HPC)
[12] = dose: 100.0 mg/kg/injection, schedule: Q01DX009 (ip), vehicle: saline
[13] = dose: 100.0 mg/kg/injection, schedule: Q04DX003 (ip), vehicle: saline
[14] = dose: 200.0 mg/kg/injection, schedule: Q01DX001 (ip), vehicle: Klucel (hydroxypropylcellulose) (HPC)
[15] = dose: 200.0 mg/kg/injection, schedule: Q01DX009 (ip), vehicle: saline
[16] = dose: 200.0 mg/kg/injection, schedule: Q04DX003 (ip), vehicle: saline
[17] = dose: 100.0 mg/kg/injection, schedule: Q04DX002 (ip), vehicle: Klucel (hydroxypropylcellulose) (HPC)
[18] = dose: 200.0 mg/kg/injection, schedule: Q04DX002 (ip), vehicle: Klucel (hydroxypropylcellulose) (HPC)
[19] = dose: 100.0 mg/kg/injection, schedule: Q01DX001 (ip), vehicle: saline
[20] = dose: 200.0 mg/kg/injection, schedule: Q01DX001 (ip), vehicle: saline

Measured: T/C

ClC1(c2ccccc2)C2CCCCC21 (stereo unspecified)
inactive: dose: 75.0 mg/kg/injection, schedule: Q01DX001 (ip), vehicle: saline 100 % of control | dose: 150.0 mg/kg/injection, schedule: Q01DX001 (ip), vehicle: saline 100 % of control

C(=N\n1cnc2c(SCc3ccccc3)ncnc21)/c1ccccc1
inactive: [1] 93 % of control | [2] 91 % of control | [3] 91 % of control

COC1OC2COc3ccccc3OC2C(NC(C)=O)C1O (stereo unspecified)
inactive: dose: 100.0 mg/kg/injection, schedule: Q01DX009 (ip), vehicle: other 96 % of control | dose: 200.0 mg/kg/injection, schedule: Q01DX009 (ip), vehicle: other 89 % of control | dose: 400.0 mg/kg/injection, schedule: Q01DX009 (ip), vehicle: other 94 % of control

CC(=O)OC1C(OCc2ccccc2)OC(COCc2ccccc2)C(OC2OC(COCc3ccccc3)C(OCc3ccccc3)C(OCc3ccccc3)C2OCc2ccccc2)C1OCc1ccccc1 (stereo unspecified)
inactive: dose: 5.31 mg/kg/injection, schedule: Q01DX009 (ip), vehicle: Klucel (hydroxypropylcellulose) (HPC) 97 % of control | dose: 10.62 mg/kg/injection, schedule: Q01DX009 (ip), vehicle: Klucel (hydroxypropylcellulose) (HPC) 94 % of control | dose: 12.5 mg/kg/injection, schedule: Q04DX003 (ip), vehicle: Klucel (hydroxypropylcellulose) (HPC) 87 % of control and 92 % of control | dose: 21.25 mg/kg/injection, schedule: Q01DX009 (ip), vehicle: Klucel (hydroxypropylcellulose) (HPC) 94 % of control | dose: 25.0 mg/kg/injection, schedule: Q04DX003 (ip), vehicle: Klucel (hydroxypropylcellulose) (HPC) 87 % of control | dose: 50.0 mg/kg/injection, schedule: Q04DX003 (ip), vehicle: Klucel (hydroxypropylcellulose) (HPC) 87 % of control and 88 % of control | dose: 75.0 mg/kg/injection, schedule: Q04DX003 (ip), vehicle: other 91 % of control | dose: 85.0 mg/kg/injection, schedule: Q01DX009 (ip), vehicle: Klucel (hydroxypropylcellulose) (HPC) 86 % of control | dose: 115.0 mg/kg/injection, schedule: Q04DX003 (ip), vehicle: other 91 % of control | dose: 170.0 mg/kg/injection, schedule: Q04DX003 (ip), vehicle: other 93 % of control

CCOC(=O)CN=CC1CCC=CO1 (stereo unspecified)
inactive: [4] 97 % of control | [5] 93 % of control | [6] 103 % of control | [7] 95 % of control | [8] 108 % of control | [9] 93 % of control

CCC1(C)C(=O)N(Br)C(=O)N1Br (stereo unspecified)
inactive: [10] 91 % of control | dose: 50.0 mg/kg/injection, schedule: Q04DX003 (ip), vehicle: saline 100 % of control | [11] 106 % of control | [12] 95 % of control | [13] 105 % of control | [14] 102 % of control | [15] 95 % of control | [16] 97 % of control

O=C(O)CCC(=O)NCCNC(c1ccccc1)(c1ccccc1)c1ccccc1
inactive: dose: 12.0 mg/kg/injection, schedule: Q01DX009 (ip), vehicle: saline 96 % of control | dose: 25.0 mg/kg/injection, schedule: Q01DX009 (ip), vehicle: saline 96 % of control | [10] 100 % of control | [13] 111 % of control | [16] 94 % of control | dose: 400.0 mg/kg/injection, schedule: Q04DX003 (ip), vehicle: saline 105 % of control

CCN(CC)CCOC(=O)C(O)(c1ccccc1)c1ccccc1
inactive: dose: 25.0 mg/kg/injection, schedule: Q04DX002 (ip), vehicle: saline 101 % of control | dose: 50.0 mg/kg/injection, schedule: Q04DX002 (ip), vehicle: saline 93 % of control | dose: 100.0 mg/kg/injection, schedule: Q04DX002 (ip), vehicle: saline 93 % of control and 115 % of control

OCC1OC2OC(c3ccccc3)(c3ccc(OCc4ccccc4)nc3OCc3ccccc3)OC2C1O (stereo unspecified)
inactive: [1] 88 % of control | [2] 90 % of control | [3] 92 % of control

Oc1ccccc1/C=N/n1cnnc1
inactive: dose: 100.0 mg/kg/injection, schedule: Q04DX003 (ip), vehicle: Klucel (hydroxypropylcellulose) (HPC) 98 % of control | dose: 200.0 mg/kg/injection, schedule: Q04DX003 (ip), vehicle: Klucel (hydroxypropylcellulose) (HPC) 100 % of control | dose: 400.0 mg/kg/injection, schedule: Q04DX003 (ip), vehicle: Klucel (hydroxypropylcellulose) (HPC) 100 % of control

NC(Cc1ccc(O)cc1)C(=O)OCc1ccccc1 (stereo unspecified)
inactive: [4] 88 % of control | [17] 104 % of control | [5] 97 % of control | [6] 94 % of control | [18] 96 % of control | [7] 94 % of control | [8] 91 % of control | dose: 400.0 mg/kg/injection, schedule: Q04DX002 (ip), vehicle: Klucel (hydroxypropylcellulose) (HPC) 96 % of control | [9] 103 % of control

COC(=O)C(CCSC)NC(=O)c1ccccc1 (stereo unspecified)
inactive: [4] 93 % of control | [6] 96 % of control

CCOC(=O)c1ccccc1N=Nc1cc(OC)c(N)cc1OC
inactive: dose: 5.0 mg/kg/injection, schedule: Q01DX001 (ip), vehicle: other 101 % of control | dose: 10.0 mg/kg/injection, schedule: Q01DX001 (ip), vehicle: other 111 % of control | dose: 20.0 mg/kg/injection, schedule: Q01DX001 (ip), vehicle: other 114 % of control

Cc1ncccc1CO
inactive: dose: 100.0 mg/kg/injection, schedule: Q04DX002 (ip), vehicle: gum acacia 104 % of control | dose: 200.0 mg/kg/injection, schedule: Q04DX002 (ip), vehicle: gum acacia 90 % of control | dose: 400.0 mg/kg/injection, schedule: Q04DX002 (ip), vehicle: gum acacia 87 % of control

Cc1noc(-c2ccc([N+](=O)[O-])o2)n1
inactive: [17] 94 % of control | [18] 105 % of control

C=CCOC(=O)C(C)O (stereo unspecified)
inactive: [10] 98 % of control | [19] 105 % of control | [12] 98 % of control | [20] 105 % of control | [15] 98 % of control

CCOP(=O)(CSCCc1ccccc1)OCC
inactive: [13] 92 % of control | [16] 103 % of control

CCCCOB(/C=C/Sc1ccccc1)OCCCC
inactive: dose: 100.0 mg/kg/injection, schedule: Q01DX009 (ip), vehicle: saline sonified 89 % of control | dose: 100.0 mg/kg/injection, schedule: Q04DX003 (ip), vehicle: saline sonified 101 % of control | dose: 200.0 mg/kg/injection, schedule: Q01DX009 (ip), vehicle: saline sonified 87 % of control | dose: 200.0 mg/kg/injection, schedule: Q04DX003 (ip), vehicle: saline sonified 103 % of control | dose: 400.0 mg/kg/injection, schedule: Q01DX009 (ip), vehicle: saline sonified 100 % of control | dose: 400.0 mg/kg/injection, schedule: Q04DX003 (ip), vehicle: saline sonified 95 % of control

CC(=O)c1cc(-c2ccc(Cl)c(Cl)c2)nc2c(Cl)cc(Cl)cc12
inactive: [19] 104 % of control | [20] 103 % of control | dose: 400.0 mg/kg/injection, schedule: Q01DX001 (ip), vehicle: saline 103 % of control

CC(C)(C)CC(C)(C)NCc1ccccc1
inactive: dose: 25.0 mg/kg/injection, schedule: Q04DX003 (ip), vehicle: saline with Tween-80 103 % of control | dose: 50.0 mg/kg/injection, schedule: Q04DX003 (ip), vehicle: saline with Tween-80 92 % of control | [5] 103 % of control

CN(C(=O)NCCCl)c1cccc2c1CCCC2
inactive: [11] 97 % of control | [14] 105 % of control | dose: 400.0 mg/kg/injection, schedule: Q01DX001 (ip), vehicle: Klucel (hydroxypropylcellulose) (HPC) 111 % of control

CCC1(C)CCC2(C)C(CCC3C(C)(CO)CCCC32O)C1 (stereo unspecified)
inactive: dose: 12.5 mg/kg/injection, schedule: Q04DX002 (ip), vehicle: saline with Tween-80 96 % of control | dose: 25.0 mg/kg/injection, schedule: Q04DX002 (ip), vehicle: saline with Tween-80 96 % of control | dose: 50.0 mg/kg/injection, schedule: Q04DX002 (ip), vehicle: saline with Tween-80 96 % of control
